# Target: T1, human PTH1 receptor (Homo sapiens, UniProt Q03431)
# T1 sequence (Q03431 27-593): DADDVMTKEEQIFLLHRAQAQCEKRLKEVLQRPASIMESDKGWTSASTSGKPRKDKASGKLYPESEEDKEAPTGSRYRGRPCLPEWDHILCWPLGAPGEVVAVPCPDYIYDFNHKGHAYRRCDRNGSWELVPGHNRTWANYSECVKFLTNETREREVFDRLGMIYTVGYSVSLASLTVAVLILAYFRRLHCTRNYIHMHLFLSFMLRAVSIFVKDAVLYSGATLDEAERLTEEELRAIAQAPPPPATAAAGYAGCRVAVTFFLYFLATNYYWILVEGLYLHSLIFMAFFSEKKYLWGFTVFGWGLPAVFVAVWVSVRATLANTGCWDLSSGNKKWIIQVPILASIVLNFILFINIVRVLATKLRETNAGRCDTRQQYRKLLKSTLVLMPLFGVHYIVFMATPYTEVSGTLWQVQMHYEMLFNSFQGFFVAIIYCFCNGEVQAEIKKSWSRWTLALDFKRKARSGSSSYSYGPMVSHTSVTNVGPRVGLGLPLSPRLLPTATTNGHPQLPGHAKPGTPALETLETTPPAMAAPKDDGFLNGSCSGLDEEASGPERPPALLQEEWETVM
# Test: In vitro cAMP signal activity in HKRK-B7 cells (LLC-PK1 cells overexpressing the human PTH1 receptor)
# Assay type: cell-based
# Conditions: HKRK-B7 cells; compound at 1×10^−3 M; cAMP produced as percentage of that produced by hPTH(1-34) at 100 nM
row,cAMP production activity (%),SMILES
1,79%,"Cc1cc(C(=O)N(C)C)ccc1CCS(=O)(=O)N1CCC2(CC1)N=C(C1CCC(C(F)(F)F)CC1)NC2=O (stereo not drawn) [Compound 104, 3,N,N-trimethyl-4-{2-[4-oxo-2-(4-trifluoromethyl-cyclohexyl)-1,3,8-triaza-spiro[4.5]dec-1-ene-8-sulfonyl]-ethyl}-benzamide]"
2,19%,"CC(C)(C)NC(=O)N1CCCC(C2=NC3(CCN(S(=O)(=O)c4cccc(Cl)c4)CC3)C(=O)N2)C1 (stereo not drawn) [Compound 454, 3-[8-(3-Chloro-benzenesulfonyl)-4-oxo-1,3,8-triaza-spiro[4.5]dec-1-en-2-yl]-piperidine-1-carboxylic acid tert-butylamide]"
3,80%,"Cc1cc(N2CCCCC2=O)cc(C)c1CCS(=O)(=O)N1CCC2(CC1)N=C(C1CCC(C)CC1)NC2=O (stereo not drawn) [Compound 771, 8-{2-[2,6-dimethyl-4-(2-oxo-piperidin-1-yl)-phenyl]-ethanesulfonyl}-2-(4-methyl-cyclohexyl)-1,3,8-triaza-spiro[4.5]dec-1-en-4-one]"
4,45%,"Cc1cc(NC[C@H](O)CO)ccc1CCS(=O)(=O)N1CCC2(CC1)N=C(c1cccc(C(F)(F)F)c1)NC2=O [Compound 155, 8-{2-[4-((S)-2,3-dihydroxy-propylamino)-2-methyl-phenyl]-ethanesulfonyl}-2-(3-trifluoromethyl-phenyl)-1,3,8-triaza-spiro[4.5]dec-1-en-4-one]"
5,69%,"CC(=O)NCc1cc(C)c(CCS(=O)(=O)N2CCC3(CC2)N=C(C2CCC(CCC(F)(F)F)CC2)NC3=O)c(C)c1 (stereo not drawn) [Compound 772, N-[3,5-dimethyl-4-(2-{4-oxo-2-[4-(3,3,3-trifluoro-propyl)-cyclohexyl]-1,3,8-triaza-spiro[4.5]dec-1-ene-8-sulfonyl}-ethyl)-benzyl]-acetamide]"
6,63%,"Cc1cc(N2CCNCC2=O)ccc1CCS(=O)(=O)N1CCC2(CC1)N=C(C1CCC(C)CC1)NC2=O (stereo not drawn) [Compound 870, 2-(4-methyl-cyclohexyl)-8-{2-[2-methyl-4-(2-oxo-piperazin-1-yl)-phenyl]-ethanesulfonyl}-1,3,8-triaza-spiro[4.5]dec-1-en-4-one]"
7,84%,"Cc1cc(C(=O)N2CCC(CO)CC2)cc(C)c1/C=C/S(=O)(=O)N1CCC2(CC1)N=C(c1ccc(F)c(OC(F)(F)F)c1)NC2=O [Compound 1161, 2-(4-Fluoro-3-trifluoromethoxy-phenyl)-8-{(E)-2-[4-(4-hydroxymethyl-piperidine-1-carbonyl)-2,6-dimethyl-phenyl]-ethenesulfonyl}-1,3,8-triaza-spiro[4.5]dec-1-en-4-one]"
8,87%,"Cc1cc(C(=O)N(C)C)cc(C)c1/C=C/S(=O)(=O)N1CCC2(CC1)N=C(C1CCC(CCC(F)(F)F)CC1)NC2=O (stereo not drawn) [Compound 994, 3,5,N,N-tetramethyl-4-((E)-2-{4-oxo-2-[4-(3,3,3-trifluoro-propyl)-cyclohexyl]-1,3,8-triaza-spiro[4.5]dec-1-ene-8-sulfonyl}-vinyl)-benzamide]"
9,37%,"Cc1cc(CNC(=O)OC(C)(C)C)ccc1CCS(=O)(=O)N1CCC2(CC1)N=C(C1CCOCC1)NC2=O [Compound 165, (3-methyl-4-{2-[4-oxo-2-(tetrahydro-pyran-4-yl)-1,3,8-triaza-spiro[4.5]dec-1-ene-8-sulfonyl]-ethyl}-benzyl)-carbamic acid tert-butyl ester]"
10,104%,"Cc1cc(C(=O)N2CCN(CCF)CC2)cc(C)c1CCS(=O)(=O)N1CCC2(CC1)N=C(C1CCC(CCC(F)(F)F)CC1)NC2=O (stereo not drawn) [Compound 761, 8-(2-{4-[4-(2-fluoro-ethyl)-piperazine-1-carbonyl]-2,6-dimethyl-phenyl}-ethanesulfonyl)-2-[4-(3,3,3-trifluoro-propyl)-cyclohexyl]-1,3,8-triaza-spiro[4.5]dec-1-en-4-one]"
11,77%,"Cc1cc(C(=O)N(C)C)ccc1CCS(=O)(=O)N1CCC2(CC1)N=C(c1cc(C(F)(F)F)ccc1C)NC2=O [Compound 112, 3,N,N-trimethyl-4-{2-[2-(2-methyl-5-trifluoromethyl-phenyl)-4-oxo-1,3,8-triaza-spiro[4.5]dec-1-ene-8-sulfonyl]-ethyl}-benzamide]"
12,95%,"Cc1cc(C(=O)N2CCC(O)(CF)CC2)cc(C)c1CCS(=O)(=O)N1CCC2(CC1)N=C(c1ccc3c(c1)OC(F)(F)C(F)(F)O3)NC2=O [Compound 1281, 8-{2-[4-(4-fluoromethyl-4-hydroxy-piperidine-1-carbonyl)-2,6-dimethyl-phenyl]-ethanesulfonyl}-2-(2,2,3,3-tetrafluoro-2,3-dihydro-benzo[1,4]dioxin-6-yl)-1,3,8-triaza-spiro[4.5]dec-1-en-4-one]"
13,27%,"O=C(O)Cn1ccc2c(/C=C/S(=O)(=O)N3CCC4(CC3)N=C(C3CCCCC3)NC4=O)cccc21 [Compound 1168, {4-[(E)-2-(2-Cyclohexyl-4-oxo-1,3,8-triaza-spiro[4.5]dec-1-ene-8-sulfonyl)-vinyl]-indol-1-yl}-acetic acid]"
14,99%,"Cc1cc(C(=O)N2CCN(C)CC2)ccc1CCS(=O)(=O)N1CCC2(CC1)N=C(c1cccc(C(F)(F)F)c1)NC2=O [Compound 289, 8-{2-[2-methyl-4-(4-methyl-piperazine-1-carbonyl)-phenyl]-ethanesulfonyl}-2-(3-trifluoromethyl-phenyl)-1,3,8-triaza-spiro[4.5]dec-1-en-4-one]"
15,63%,"CC(=O)Nc1ccc(CCS(=O)(=O)N2CCC3(CC2)N=C(C24CC5CC(CC(C5)C2)C4)NC3=O)c(C)c1 [Compound 918, N-{4-[2-(2-adamantan-1-yl-4-oxo-1,3,8-triaza-spiro[4.5]dec-1-ene-8-sulfonyl)-ethyl]-3-methyl-phenyl}-acetamide]"
16,56%,"Cc1ccc(C(=O)N(C)CCO)cc1CCS(=O)(=O)N1CCC2(CC1)N=C(c1cccc(OC(F)(F)F)c1)NC2=O [Compound 413, N-(2-hydroxy-ethyl)-4,N-dimethyl-3-{2-[4-oxo-2-(3-trifluoromethoxy-phenyl)-1,3,8-triaza-spiro[4.5]dec-1-ene-8-sulfonyl]-ethyl}-benzamide]"
17,39%,"O=C1NC(C2CCC(C(F)(F)F)CC2)=NC12CCN(S(=O)(=O)c1cccc(Cl)c1)CC2 (stereo not drawn) [Compound 17, 8-(3-chloro-benzenesulfonyl)-2-(4-trifluoromethyl-cyclohexyl)-1,3,8-triaza-spiro[4.5]dec-1-en-4-one]"
18,4.2%,"Cc1cc(CN(CCCN(C)C)C(=O)OC(C)(C)C)ccc1/C=C/S(=O)(=O)N1CCC2(CC1)N=C(C1CCCCC1)NC2=O [Compound 569, {4-[(E)-2-(2-cyclohexyl-4-oxo-1,3,8-triaza-spiro[4.5]dec-1-ene-8-sulfonyl)-vinyl]-3-methyl-benzyl}-(3-dimethylamino-propyl)-carbamic acid tert-butyl ester]"
19,58%,"Cc1cc(N2C(=O)N(C)C(C)(C)C2=O)cc(C)c1CCS(=O)(=O)N1CCC2(CC1)N=C(C1CCC(C)CC1)NC2=O (stereo not drawn) [Compound 885, 3-(3,5-dimethyl-4-{2-[2-(4-methyl-cyclohexyl)-4-oxo-1,3,8-triaza-spiro[4.5]dec-1-ene-8-sulfonyl]-ethyl}-phenyl)-1,5,5-trimethyl-imidazolidine-2,4-dione]"
20,88%,"Cc1cc(C(=O)N2CCC(C)(O)CC2)cc(C)c1/C=C/S(=O)(=O)N1CCC2(CC1)N=C(c1ccc(OC(F)(F)F)cc1)NC2=O [Compound 1198, 8-{(E)-2-[4-(4-hydroxy-4-methyl-piperidine-1-carbonyl)-2,6-dimethyl-phenyl]-ethenesulfonyl}-2-(4-trifluoromethoxy-phenyl)-1,3,8-triaza-spiro[4.5]dec-1-en-4-one]"
21,84%,"Cc1cc(C(=O)N2CCCC2)cc(C)c1/C=C/S(=O)(=O)N1CCC2(CC1)N=C(c1cccc(C(F)(F)F)c1)NC2=O [Compound 388, 8-{(E)-2-[2,6-dimethyl-4-(pyrrolidine-1-carbonyl)-phenyl]-ethenesulfonyl}-2-(3-trifluoromethyl-phenyl)-1,3,8-triaza-spiro[4.5]dec-1-en-4-one]"
22,72%,"Cc1cc(C(=O)N2CCC[C@@H]2CO)ccc1CCS(=O)(=O)N1CCC2(CC1)N=C(c1cccc(C(F)(F)F)c1)NC2=O [Compound 371, 8-{2-[4-((R)-2-hydroxymethyl-pyrrolidine-1-carbonyl)-2-methyl-phenyl]-ethanesulfonyl}-2-(3-trifluoromethyl-phenyl)-1,3,8-triaza-spiro[4.5]dec-1-en-4-one]"
23,118%,"Cc1cc(N(C)C(N)=O)cc(C)c1CC(C)S(=O)(=O)N1CCC2(CC1)N=C(c1cccc(OC(F)(F)F)c1)NC2=O (stereo not drawn) [Compound 1090, 1-(3,5-Dimethyl-4-{2-[4-oxo-2-(3-trifluoromethoxy-phenyl)-1,3,8-triaza-spiro[4.5]dec-1-ene-8-sulfonyl]-propyl}-phenyl)-1-methyl-urea]"

row,SMILES,cAMP production activity (%)
1,"O=C1NC(c2cccc(OC(F)(F)F)c2)=NC12CCN(S(=O)(=O)/C=C/c1cc(F)c(OCCC(O)CO)c(F)c1)CC2 (stereo not drawn) [Compound 600, 8-{(E)-2-[4-(3,4-dihydroxy-butoxy)-3,5-difluoro-phenyl]-ethenesulfonyl}-2-(3-trifluoromethoxy-phenyl)-1,3,8-triaza-spiro[4.5]dec-1-en-4-one]",67%
